Laboratory results published in US7745576B2, “Polypeptides having antimicrobial activity and polynucleotides encoding same” (Novozymes Adenium Biotech A/S, priority 2005, dated 2010).

What was measured:
Type in all cases: cell-based
[1] = system: Acinetobacter iwoffii ATCC 15309; experiment: MIC, NCCLS/CLSI M7-A6 dilution susceptibility test; details: average of two independent evaluations
Method: (§1) The antimicrobial peptide shown as amino acids 1 to 21 of SEQ ID NO: 2 was prepared synthetically. The Minimal Inhibitory Concentration (MIC) was determined to test for the antimicrobial activity of Arenicin following the NCCLS guidelines from CLSI (Clinical and Laboratory Standards Institute; formerly known as National Committee for Clinical and Laboratory Standards)—protocol M7-A6, Vol. 20, No. 2: Methods for Dilution Antimicrobial Susceptibility Tests for Bacteria That Grow Aerobically.
(§2) The antimicrobial peptide of the invention was tested against 12 bacterial strains obtained from the American Type Culture Collection (ATCC). The results in Table 1 are average values of two independent evaluations.

[2] = system: Aeromonas salmonicida ATCC 14174; experiment: MIC, NCCLS/CLSI M7-A6 dilution susceptibility test; details: average of two independent evaluations
Method: as §1, §2

[3] = system: Citrobacter freundii ATCC 8090; experiment: MIC, NCCLS/CLSI M7-A6 dilution susceptibility test; details: average of two independent evaluations
Method: as §1, §2

[4] = system: Enterobacter aerogenes ATCC 13048; experiment: MIC, NCCLS/CLSI M7-A6 dilution susceptibility test; details: average of two independent evaluations
Method: as §1, §2

[5] = system: Enterobacter cloacae ATCC 13047; experiment: MIC, NCCLS/CLSI M7-A6 dilution susceptibility test; details: average of two independent evaluations
Method: as §1, §2

[6] = system: Escherichia coli ATCC 25404; experiment: MIC, NCCLS/CLSI M7-A6 dilution susceptibility test; details: average of two independent evaluations
Method: as §1, §2

[7] = system: Escherichia coli ATCC 25922; experiment: MIC, NCCLS/CLSI M7-A6 dilution susceptibility test; details: average of two independent evaluations
Method: as §1, §2

[8] = system: Moraxella catarrhalis ATCC 25238; experiment: MIC, NCCLS/CLSI M7-A6 dilution susceptibility test; details: average of two independent evaluations
Method: as §1, §2

[9] = system: Pseudomonas aeruginosa ATCC 27853; experiment: MIC, NCCLS/CLSI M7-A6 dilution susceptibility test; details: average of two independent evaluations
Method: as §1, §2

[10] = system: Pseudomonas aeruginosa ATCC 9027; experiment: MIC, NCCLS/CLSI M7-A6 dilution susceptibility test; details: average of two independent evaluations
Method: as §1, §2

[11] = system: Shigella sonnei ATCC 11060; experiment: MIC, NCCLS/CLSI M7-A6 dilution susceptibility test; details: average of two independent evaluations
Method: as §1, §2

[12] = system: Stenotrophomonas maltophlila ATCC 13637; experiment: MIC, NCCLS/CLSI M7-A6 dilution susceptibility test; details: average of two independent evaluations
Method: as §1, §2

[13] = system: Aspergillus niger ATCC9642; experiment: MIC against clinical fungi, PD broth dilution; details: 30° C., approximately 40 hours
Method: (§3) Minimal inhibitory concentrations of Arenicin against yeasts and fungi were determined essentially as described by NCCLS/CLSI (clinical and laboratory standards institute).
(§4) In summary, fungal or yeasts suspension of approximately 1 McFarland unit was diluted 1:100 in PD broth (8 g/L potato dextrose) and growth was assayed against serial 2-fold dilutions of Arenicin (0.03-32 micrograms/mL). Assay plates were incubated at 25-27° C. for Candida albicans, Candida tropicalis, Cryptococcus neoformans, Trichophyton mentagrophytes and Epidermophyton floccosum, and at 30° C. for Candida glabrata, Pichia pastoris, Saccharomyces cerevisiae and Aspergillus niger. Growth was recorded visually (naked eye, oblique illumination) after approximately 40 hours of incubation.

[14] = system: Candida albicans ATCC 10231; experiment: MIC against clinical fungi, PD broth dilution; details: 25-27° C., approximately 40 hours
Method: as §3, §4

[15] = system: Candida albicans ATCC 18804; experiment: MIC against clinical fungi, PD broth dilution; details: 25-27° C., approximately 40 hours
Method: as §3, §4

[16] = system: Candida albicans ATCC 28517; experiment: MIC against clinical fungi, PD broth dilution; details: 25-27° C., approximately 40 hours
Method: as §3, §4

[17] = system: Candida glabrata DSM 11226; experiment: MIC against clinical fungi, PD broth dilution; details: 30° C., approximately 40 hours
Method: as §3, §4

[18] = system: Candida tropicalis DSM 11953; experiment: MIC against clinical fungi, PD broth dilution; details: 25-27° C., approximately 40 hours
Method: as §3, §4

[19] = system: Cryptococcus neoformans DSM 11959; experiment: MIC against clinical fungi, PD broth dilution; details: 25-27° C., approximately 40 hours
Method: as §3, §4

[20] = system: Pichia pastoris ATCC 201178; experiment: MIC against clinical fungi, PD broth dilution; details: 30° C., approximately 40 hours
Method: as §3, §4

[21] = system: Pichia pastoris ATCC 20864; experiment: MIC against clinical fungi, PD broth dilution; details: 30° C., approximately 40 hours
Method: as §3, §4

[22] = system: Saccharomyces cerevisiae DSM 1333; experiment: MIC against clinical fungi, PD broth dilution; details: 30° C., approximately 40 hours
Method: as §3, §4

[23] = system: Trichophyton mentagrophytes DSM 4870; experiment: MIC against clinical fungi, PD broth dilution; details: 25-27° C., approximately 40 hours
Method: as §3, §4

“Arenicin: antimicrobial polypeptide shown as amino acids 1 to 21 of SEQ ID NO: 2 (Arenicola marina), prepared synthetically (MGYSMNIALVYATVLIGVLHV; listed as Arenicola marina)” gave an MIC [1] of 0.25 microgram/mL, an MIC [2] of 2 micrograms/mL and an MIC [3] of 1 microgram/mL. The MIC [4] was 1 microgram/mL, the MIC [5] was 1 microgram/mL and the MIC [6] was 0.5 microgram/mL. For the same substance, the MIC [7] was 0.25 microgram/mL, the MIC [8] was <0.06 microgram/mL and the MIC [9] was 0.5 microgram/mL. It also gave an MIC [10] of 1 microgram/mL, an MIC [11] of 0.5 microgram/mL and an MIC [12] of 1 microgram/mL. The MIC [13] was 8 micrograms/mL, the MIC [14] was 4 micrograms/mL and the MIC [15] was 8 micrograms/mL. It also gave an MIC [16] of 8 micrograms/mL, an MIC [17] of 16 micrograms/mL and an MIC [18] of 2 micrograms/mL. For the same substance, the MIC [19] was 1 microgram/mL, the MIC [20] was 4 micrograms/mL and the MIC [21] was 2 micrograms/mL. It also gave an MIC [22] of 8 micrograms/mL and an MIC [23] of 8 micrograms/mL.
